The values below come from patent US20090181972A1, “Novel Inhibitors of Cysteine Proteases, the Pharmaceutical Compositions Thereof and their Therapeutic Applications” (priority 2005, published 2009).

The target in one test is Cathepsin B (Homo sapiens, UniProt P07858). The test can be described thus: Cathepsin B activity assay. Conditions: 36 μM z-RR-AMC, 3.6 nM enzyme; pre-incubated 30 minutes at 25° C., 60 minutes at 37° C.; sigmoidal fit. The class given is biochemical. How it is done:
Cathepsin B was diluted in Cathepsin B buffer (20 mM Tris HCl pH 6.8; 1 mM EDTA; 1 mM DTT). Compounds stocks (100 mM) were stored at −20° C. in DMSO. Compounds were tested at the following final concentrations: 100 μM; 33.3 μM; 11.1 μM; 3.7 μM; 1.23 μM; 412 nM; 137 nM; 45.7 nM; 15.2 nM; 5 nM. Reactions were performed as duplicates in Black LJL 96 well plates (HE microplates; Molecular Devices; 20 μl final reaction volume). The substrate concentration for cathepsin B specificity assay was 36 μM (z-RR-AMC; Calbiochem). The concentration of the enzyme (Cathepsin B) in specificity assays was 3.6 nM. The concentrations were determined in order to perform specificity assays under initial velocities at fixed substrate concentration. Compounds were pre-incubated with enzymes for 30 minutes at 25° C. Reactions were initiated by addition of substrate to the plates containing the enzymes (+/− compounds) diluted in assay buffer. Reactions were incubated for 60 minutes at 37° C. Reactions were stopped by adding acetic acid (100 mM final). Readings were performed on a Pherastar Fluorescent Reader (BMG). δ Emission 380 nm; δ Excitation=460 nm. Data (mean values +/− standard deviation) were analyzed as % of control (no compound) and plotted as percentage versus the Log of the compound concentration using GraphPad (Prism). Data were fitted to a sigmoidal model (variable slope).

In the next test the target is T1, USP5 (Homo sapiens, UniProt P45974).
T1 sequence (P45974 1-858): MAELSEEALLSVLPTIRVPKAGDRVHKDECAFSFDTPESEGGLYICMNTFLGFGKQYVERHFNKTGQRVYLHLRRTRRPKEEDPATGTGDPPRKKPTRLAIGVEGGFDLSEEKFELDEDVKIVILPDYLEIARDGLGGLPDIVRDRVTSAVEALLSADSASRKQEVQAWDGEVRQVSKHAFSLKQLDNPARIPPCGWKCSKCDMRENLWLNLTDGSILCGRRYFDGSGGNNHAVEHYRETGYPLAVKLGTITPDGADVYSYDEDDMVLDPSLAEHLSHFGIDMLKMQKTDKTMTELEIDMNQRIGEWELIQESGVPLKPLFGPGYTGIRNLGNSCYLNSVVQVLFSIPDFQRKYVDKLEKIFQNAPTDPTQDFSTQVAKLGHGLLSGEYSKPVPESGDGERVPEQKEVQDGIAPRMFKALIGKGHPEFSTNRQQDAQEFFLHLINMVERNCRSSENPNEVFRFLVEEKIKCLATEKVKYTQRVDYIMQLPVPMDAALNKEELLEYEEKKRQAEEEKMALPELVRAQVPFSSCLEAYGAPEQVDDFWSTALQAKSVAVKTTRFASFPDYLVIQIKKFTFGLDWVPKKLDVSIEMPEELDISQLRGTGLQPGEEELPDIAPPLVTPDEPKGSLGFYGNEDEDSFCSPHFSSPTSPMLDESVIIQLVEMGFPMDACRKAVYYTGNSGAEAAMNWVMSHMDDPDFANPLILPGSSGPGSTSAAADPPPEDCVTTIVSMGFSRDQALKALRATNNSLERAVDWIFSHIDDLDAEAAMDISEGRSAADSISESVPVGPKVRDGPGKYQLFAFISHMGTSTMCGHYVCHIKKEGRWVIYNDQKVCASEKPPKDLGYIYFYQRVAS
The test can be described thus: USP5 activity assay. The format is biochemical. Conditions: 400 nM Ub-AMC, 300 pM enzyme; pre-incubated 30 minutes at 25° C., 60 minutes at 37° C.; sigmoidal fit; read-out: USP 5. On the procedure: USP5 was diluted in USP buffer (50 mM Tris HCl; 0.5 mM EDTA; 5 mM DTT; 0.01% Triton X-100; Bovine Serum Albumin 0.05 mg.ml^−1 pH 7.6). Compounds stocks (100 mM) were stored at -20° C. in DMSO.
Reactions were performed as duplicates in Black LJL 96 well plates (HE microplates; Molecular Devices; 20 μl final reaction volume). The substrate concentration for USP5 was 400 nM Ub-AMC (Boston Biochem). The concentrations of the enzyme (USP5) in specificity assays was 300 pM. The concentrations were determined in order to perform specificity assays under initial velocities at fixed substrate concentration. Compounds were pre-incubated with enzymes for 30 minutes at 25° C. Reactions were initiated by addition of substrate to the plates containing the enzymes (+/− compounds) diluted in assay buffer. Reactions were incubated for 60 minutes at 37° C. Reactions were stopped by adding acetic acid (100 mM final). Readings were performed on a Pherastar Fluorescent Reader (BMG). λ Emission 380 nm; λ Excitation=460 nm. Data (mean values +/− standard deviation) were analyzed as % of control (no compound) and plotted as percentage versus the Log of the compound concentration using GraphPad (Prism). Data were fitted to a sigmoidal model (variable slope).

The subject of test [1] is PC-3 prostate cancer cells. The test can be described thus: PC3 cell viability and proliferation assay (MTS). The class given is cell-based. Particulars: 72 hours incubation, mean of three independent experiments, read-out: PC3 GI50 D3. Summed up:
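PC-3 cells, seeded 24 h earlier, were treated in triplicate at 5 nM–10 μM with 0.5% final DMSO for 72 hours. Viability was read by 2-hour MTS conversion and absorbance at 492 nm. GI50 came from a sigmoidal variable-slope fit, averaged over three independent experiments.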

On to `CC(C)c1nnc2nc3c(nn12)C(=O)c1ccccc1-3` [Example 1l/A, 1-lsopropyl-2,3,4,10,10a-pentaaza-cyclopenta[b]fluoren-9-one], for which the IC50 stood at 9.2 µM at Cathepsin B and 3.9 µM at USP5.

On to `CCc1nnc2nc3c(nn12)C(=O)c1cc(OC)c(OC)cc1-3` [Example 5b/A, 1-Ethyl-6,7-dimethoxy-2,3,4,10,10a-pentaaza-cyclopenta[b]fluoren-9-one], for which the IC50 on USP5 was 4.8 µM.

Turning to “6-(7)-Chloro-1-methyl-2,3,4,10,10a-pentaaza-cyclopenta[b]fluoren-9-one [Example 3/A]”, the IC50 against Cathepsin B worked out at 17.4 µM; at USP5, 1.54 µM. The GI50 in test [1] came out at 0.994 µM.
